Results published in PMC11942486, “The Impact of a Quinone Scaffold on Thermo-TRPs Modulation by Dimethylheptyl Phytocannabinoids” (International Journal of Molecular Sciences, 2025).
Where two headings read alike, the source gives them in different places.

Tests used:
Format in all cases: cell-based
human TRPV1 = target: T1, human TRPV1 (Homo sapiens, UniProt Q8NER1); experiment: Thermo-TRP assay: [Ca2+]i elevation (Fluo-4) in HEK-293 cells transfected with TRPV1
T1 construct: expressed in transfected cells
T1 sequence (Q8NER1 whole entry): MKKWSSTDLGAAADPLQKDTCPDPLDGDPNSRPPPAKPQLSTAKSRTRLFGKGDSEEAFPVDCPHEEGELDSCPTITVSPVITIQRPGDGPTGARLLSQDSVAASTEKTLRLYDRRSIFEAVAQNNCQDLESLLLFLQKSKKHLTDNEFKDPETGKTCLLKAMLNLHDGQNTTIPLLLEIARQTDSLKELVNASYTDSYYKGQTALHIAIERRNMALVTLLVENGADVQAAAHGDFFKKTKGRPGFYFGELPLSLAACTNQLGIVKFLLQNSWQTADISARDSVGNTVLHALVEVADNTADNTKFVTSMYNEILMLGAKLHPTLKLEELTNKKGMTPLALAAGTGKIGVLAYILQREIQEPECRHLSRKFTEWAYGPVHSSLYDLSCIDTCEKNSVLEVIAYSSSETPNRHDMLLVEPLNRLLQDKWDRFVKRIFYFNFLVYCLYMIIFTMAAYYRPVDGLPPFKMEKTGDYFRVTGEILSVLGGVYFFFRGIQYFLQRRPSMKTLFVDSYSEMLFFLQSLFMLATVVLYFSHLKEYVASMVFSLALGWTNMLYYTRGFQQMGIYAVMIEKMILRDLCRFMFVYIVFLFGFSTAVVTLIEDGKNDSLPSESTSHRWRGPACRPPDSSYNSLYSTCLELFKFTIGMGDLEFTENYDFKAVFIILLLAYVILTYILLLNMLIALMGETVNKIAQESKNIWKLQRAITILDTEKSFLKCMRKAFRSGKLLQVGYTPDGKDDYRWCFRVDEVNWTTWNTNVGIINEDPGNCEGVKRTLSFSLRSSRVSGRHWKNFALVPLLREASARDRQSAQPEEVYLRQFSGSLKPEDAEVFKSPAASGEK
Protocol: (§1) The compounds were tested on HEK-293 cells either stably transfected with rat TRPA1, TRPV2, TRPV3, TRPV4, TRPM8 or human TRPV1 or not-transfected, by performing a continuous monitoring of the intracellular calcium ([Ca^2+]i) elevation during the experiments, following the protocol already described. […] Cell fluorescence before and after the addition of various concentrations of tested compounds was measured, normalizing the effects against the response to ionomycin (IM, 4 μM). The effect on [Ca^2+]i in non-transfected HEK-293 cells were used as the baseline and subtracted from the values obtained from the transfected ones. The efficacy of the agonists was determined by normalizing their effect to the maximum Ca^2+ influx effect on [Ca^2+]i observed with application of 4μM ionomycin. The effects of TRPA1 agonists are expressed as a percentage of the effect obtained with 100 μM allyl isothiocyanate (AITC). In the TRPV3 assay, rat TRPV3-expressing HEK-293 cells were first sensitized with the structurally unrelated agonist 2-aminoethoxydiphenyl borate (100 μM). For the TRPM8, the experiments were carried out at 22 °C. The potency (EC50 values) is determined as the concentration required to produce half-maximal increases in [Ca^2+]i. […] A dose-response curve fitting (sigmoidal dose-response variable slope) and parameter estimation were performed with Graph-Pad Prism 8 (GraphPad Software Inc., San Diego, CA, USA). All determinations were performed at least in triplicate.

rat TRPM8 = target: T2, rat TRPM8 (Rattus norvegicus, UniProt Q8R455); experiment: Thermo-TRP assay: [Ca2+]i elevation (Fluo-4) in HEK-293 cells transfected with TRPM8
T2 construct: expressed in transfected cells
T2 sequence (Q8R455 whole entry): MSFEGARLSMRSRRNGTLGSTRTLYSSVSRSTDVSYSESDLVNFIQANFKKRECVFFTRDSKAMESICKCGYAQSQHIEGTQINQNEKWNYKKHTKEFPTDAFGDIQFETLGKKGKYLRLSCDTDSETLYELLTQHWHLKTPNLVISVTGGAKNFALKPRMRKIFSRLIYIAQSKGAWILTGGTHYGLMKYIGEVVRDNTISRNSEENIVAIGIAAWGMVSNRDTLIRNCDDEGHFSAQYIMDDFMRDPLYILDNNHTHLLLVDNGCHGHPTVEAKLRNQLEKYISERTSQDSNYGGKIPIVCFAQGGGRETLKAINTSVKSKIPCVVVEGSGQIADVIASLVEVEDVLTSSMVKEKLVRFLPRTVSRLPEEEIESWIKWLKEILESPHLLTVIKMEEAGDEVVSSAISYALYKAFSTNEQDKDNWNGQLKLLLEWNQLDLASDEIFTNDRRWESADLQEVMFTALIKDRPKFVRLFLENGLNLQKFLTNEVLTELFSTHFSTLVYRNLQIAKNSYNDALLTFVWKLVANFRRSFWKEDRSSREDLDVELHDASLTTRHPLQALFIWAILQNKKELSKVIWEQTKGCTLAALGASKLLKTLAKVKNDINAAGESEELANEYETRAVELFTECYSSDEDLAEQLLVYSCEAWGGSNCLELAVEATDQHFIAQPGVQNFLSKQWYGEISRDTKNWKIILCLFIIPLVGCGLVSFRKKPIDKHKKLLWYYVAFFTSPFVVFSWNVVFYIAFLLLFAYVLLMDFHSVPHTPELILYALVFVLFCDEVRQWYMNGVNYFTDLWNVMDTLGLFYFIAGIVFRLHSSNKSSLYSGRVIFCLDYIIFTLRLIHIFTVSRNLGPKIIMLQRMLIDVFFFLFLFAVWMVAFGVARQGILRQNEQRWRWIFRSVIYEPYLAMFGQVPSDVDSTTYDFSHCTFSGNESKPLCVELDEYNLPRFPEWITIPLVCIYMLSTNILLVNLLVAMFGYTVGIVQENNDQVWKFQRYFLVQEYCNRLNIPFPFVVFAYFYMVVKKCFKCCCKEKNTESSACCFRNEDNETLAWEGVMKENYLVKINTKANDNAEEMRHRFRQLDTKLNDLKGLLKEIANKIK
Protocol: as §1

rat TRPV2 = target: T3, rat TRPV2 (Rattus norvegicus, UniProt Q9WUD2); experiment: Thermo-TRP assay: [Ca2+]i elevation (Fluo-4) in HEK-293 cells transfected with TRPV2; details: for TRPV2 Efficacy (% Ionomycin 4 μM): agonist effect as % of ionomycin 4 μM; for EC50: half-maximal increase in [Ca2+]i, read-out: TRPV2 Potency EC50; for IC50: vs CBD 2 μM
T3 construct: expressed in transfected cells
T3 sequence (Q9WUD2 1-761): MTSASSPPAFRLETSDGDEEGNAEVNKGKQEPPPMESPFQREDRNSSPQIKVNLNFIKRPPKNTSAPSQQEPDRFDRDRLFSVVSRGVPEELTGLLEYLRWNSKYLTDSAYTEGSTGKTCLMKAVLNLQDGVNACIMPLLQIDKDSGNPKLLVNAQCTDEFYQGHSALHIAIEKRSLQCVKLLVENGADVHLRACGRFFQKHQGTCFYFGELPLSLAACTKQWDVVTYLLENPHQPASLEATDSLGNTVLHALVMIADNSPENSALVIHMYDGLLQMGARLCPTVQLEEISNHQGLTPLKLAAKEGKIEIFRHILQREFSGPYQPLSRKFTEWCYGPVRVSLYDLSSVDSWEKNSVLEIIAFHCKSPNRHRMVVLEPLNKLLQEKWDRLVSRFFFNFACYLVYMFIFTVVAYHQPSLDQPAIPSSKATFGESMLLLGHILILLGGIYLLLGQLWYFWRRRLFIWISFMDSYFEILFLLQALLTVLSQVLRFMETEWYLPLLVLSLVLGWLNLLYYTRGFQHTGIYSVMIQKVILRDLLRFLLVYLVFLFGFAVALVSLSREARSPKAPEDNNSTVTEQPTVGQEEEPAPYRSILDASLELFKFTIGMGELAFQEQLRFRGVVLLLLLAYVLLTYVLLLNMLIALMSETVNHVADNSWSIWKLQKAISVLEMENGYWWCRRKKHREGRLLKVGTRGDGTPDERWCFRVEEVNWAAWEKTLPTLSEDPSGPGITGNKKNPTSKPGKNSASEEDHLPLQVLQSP
Protocol: The compounds were tested on HEK-293 cells either stably transfected with rat TRPA1, TRPV2, TRPV3, TRPV4, TRPM8 or human TRPV1 or not-transfected, by performing a continuous monitoring of the intracellular calcium ([Ca^2+]i) elevation during the experiments, following the protocol already described. On the day of the experiment, the cells were loaded for 1 h in the dark at room temperature with the fluorescent probe Fluo-4 AM (4 μM in DMSO containing 0.02% Pluronic F-127). The cells were rinsed, resuspended in Tyrode’s solution (145 mM NaCl, 2.5 mM KCl, 1.5 mM CaCl2, 1.2 mM MgCl2, 10 mM D-glucose, and 10 mM HEPES, pH 7.4), and transferred to a quartz cuvette of a spectrofluorimeter (PerkinElmer LS50B; λEX = 488 nm, λEM = 516 nm) equipped with a PTP-1 fluorescence Peltier system (PerkinElmer Life and Analytical Sciences, Waltham, MA, USA) under continuous stirring. Cell fluorescence before and after the addition of various concentrations of tested compounds was measured, normalizing the effects against the response to ionomycin (IM, 4 μM). The effect on [Ca^2+]i in non-transfected HEK-293 cells were used as the baseline and subtracted from the values obtained from the transfected ones. The efficacy of the agonists was determined by normalizing their effect to the maximum Ca^2+ influx effect on [Ca^2+]i observed with application of 4μM ionomycin. The effects of TRPA1 agonists are expressed as a percentage of the effect obtained with 100 μM allyl isothiocyanate (AITC). In the TRPV3 assay, rat TRPV3-expressing HEK-293 cells were first sensitized with the structurally unrelated agonist 2-aminoethoxydiphenyl borate (100 μM). For the TRPM8, the experiments were carried out at 22 °C. The potency (EC50 values) is determined as the concentration required to produce half-maximal increases in [Ca^2+]i. Antagonist/desensitizing behavior is evaluated against the agonist of the TRP analyzed by adding the compounds directly in the quartz cuvette 5 min before stimulation of cells with the agonist (allylisothiocyanate (100 μM) for TRPA1, capsaicin (0.1 μM) for TRPV1, cannabidiol (2 μM) for TRPV2, thymol (100 μM) for TRPV3, GSK1016790A (10 nM) for TRPV4, and icilin (0.25 μM) for TRPM8). The IC50 value is expressed as the concentration exerting a half-maximal inhibition of the agonist effect, taking as 100% the effect on [Ca^2+]i exerted by the agonist alone. A dose-response curve fitting (sigmoidal dose-response variable slope) and parameter estimation were performed with Graph-Pad Prism 8 (GraphPad Software Inc., San Diego, CA, USA). All determinations were performed at least in triplicate.

[1] = vs Capsaicin 0.1 μM, read-out: IC50 TRPV1
[2] = vs Icilin 0.25 μM, 22 °C, read-out: IC50 TRPM8

Compound	IC50 (human TRPV1; [1]) [µM]	IC50 (rat TRPM8; [2]) [µM]	TRPV2 Efficacy (% Ionomycin 4 μM) (rat TRPV2) [%]	EC50 (rat TRPV2) [µM]	IC50 (rat TRPV2) [µM]	IC50 (human TRPV1) [µM]	IC50 (rat TRPM8) [µM]
CCCCCCC(C)(C)C1=CC(=O)C2=C(OC(C)(CCC=C(C)C)C=C2)C1=O (centres unmarked) [8b]	> 100	> 100	31.5 ± 2.9	> 50	6.9 ± 0.1	–	–
CCCCCCC(C)(C)C1=CC(=O)C(C/C=C(\C)CCC=C(C)C)=C(O)C1=O [7b, p-DMHCBGQ]	> 100	14.9 ± 3.9	47.8 ± 1.4	30.5 ± 3.9	23.7 ± 2.9	–	–
C=C(C)[C@@H]1CCC(C)=C[C@H]1C1=C(O)C(=O)C(C(C)(C)CCCCCC)=CC1=O [5b]	> 100	1.2 ± 0.1	30.6 ± 6.5	12.2 ± 9.7	5.45 ± 0.5	–	–
CCCCCCC(C)(C)C1=CC2=C(C(=O)C1=O)[C@@H]1CC(C)=CC[C@H]1C(C)(C)O2 [6b]	–	–	78.1 ± 4.0	> 50	8.5 ± 0.5	> 100	> 100
